Literature values, collected in patent publication US5843713A, “Peptide sequence that forms mucin sugar chain and technique for modifying protein to be linked with mucin sugar chain” (Kirin Beer Kabushiki Kaisha, priority 1994, dated 1998).

Key:
[1] = tested on: O-GalNAc T derived from swine submaxillary gland; settings: literature, Biochemistry Vol.18 (1979)
[2] = tested on: crude enzyme solution of O-GalNAc T extracted from human breast cancer cells MCF7; settings: literature, J. Biol. Chem. Vol.269 (1994)

Row | Substance | GalNAc acceptor activity [1] | transfer of GalNAc [2]
1 | PRTPPP: literature peptide derived from bovine myelin basic protein | highly active GalNAc acceptors | –
2 | TPPP: literature peptide derived from bovine myelin basic protein (RTPPP) | highly active GalNAc acceptors | –
3 | PDTRPPAGS [literature peptide analogous to repetitive region of human mucin MUC1] | – | no transfer of GalNAc is observed
4 | PDTRAPPGS [literature peptide analogous to repetitive region of human mucin MUC1] | – | no transfer of GalNAc is observed
5 | PDTRPAPGS [literature peptide analogous to repetitive region of human mucin MUC1] | – | no transfer of GalNAc is observed
6 | TPRTPPP [literature peptide derived from bovine myelin basic protein] | highly active GalNAc acceptors | –
